Assay results: EP2229935A1, “Peptide derivatives or pharmaceutically acceptable salts thereof, method for producing the same, use of said derivatives and pharmaceutical composition” (Nebolsin, Vladimir Evgenievich, priority 1997, dated 1999)
Where two headings read alike, the source gives them in different places. Marks after values point to notes of the source that are not given here.

Columns and labels:
[1] = system: Strain Aichi of type A human influenza virus; assay type: in vivo; settings: 100 mg/kg, 24 and 2 hours prior and 3 days post infection
[2] = system: hepatic P-450 cytochrome system; assay: Hexenal sleep duration in mice; assay type: in vivo; settings: CBF1 mice; oral 3 days, 50 µg/kg; control 25.91 ± 1.57
Procedure: Change in Hexenal sleep (HS) duration is the in vivo measurable index of hepatic P-450 cytochrome system condition.
Studies were carried out on male mice of the lines BALB/c*h75, C57B1/6, CBA, DBA/2, first generation CBF1 and BDF1 hybrides, with initial mass 18-20 g, each group including 10 mice; and on mongrel male guinea pigs with initial mass 250-300 g, each group including 24 animals. All the test compounds (from II to LII) were administered orally in drinking water and for three days at doses 50 and 500 µg/kg. Hexenal hydrochloride at a dose […] of animal mass was administered 24 hours after the last drug administration, except for line BALB/c*h75 mice, which were administered Hexenal at a dose 60 µg/kg at the same terms, and guinea pigs for which Hexenal dose was 30 µg/kg. HS duration was determined in minutes.

mongrel male rats = assay: Hypolipidemic activity: experimental hyperlipidemia (atherogenic load); settings: atherogenic diet, oral last four days, 50 µg/kg; for HDL-CS / LDL-CS+ VLDL-CS / Total CS / Triglycerides: blood; for Kcs: cholesterol index;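 on all read-outs here: serum drawn 18 h after the final dose from rats deprived of food over that interval, groups of 10 animals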
Procedure: Hypolipidemic activity of the compounds of general formula (I) was studied on the model of experimental hyperlipidemia [Arichi H., Kumura H.O. Effects of stibens compounds of roots of polygonum cuspidatium on the lipid metabolism. […] Each group of animals included 10 rats. […] Blood samples were taken for analysis 18 hours after the last administration of the test substances during which period food was taken away from rats.
The following parameters were determined: total cholesterol (total CS); high density lipoprotein cholesterol (HDL-CS); low density lipoprotein cholesterol and very low density lipoprotein cholesterol (LDL-CS and VLDL-CS); triglycerides (TG). Blood serum CS level was determined according to the Ilk method [Biochemical examination in the clinic. […] HDL-CS level was measured in supernatant following heparine-manganese precipitation of LDL+VLDL [Titov V.N., Brener E.D., Khaltaiev N.G., Zadoya A.A., Tvorogova M.G. A method and diagnostic significance of cholesterol level study in α-lipoproteins. […] LDL-CS level determination was carried out by calculation according to the formula presented in the work Friedwald W.T. [Friedwald W.T., Levy K.J., Leus R. Fat transport in lipoproteins: an integrated approach to mechanism and disorders.
To assess the effect of the test compounds on the ratio of atherogenic and antiatherogenic blood serum lipoproteins, cholesterol index (Kcs) was calculated according to the formula presented in the work [Klimov A.N., Nikulcheva N.G. Lipoproteins, dylipoproteinemias and atherosclerosis.
Blood serum TG level was determined using the conventional method [Friedwald W.T., Levy R.I., Fredrickson D.S. Estimation of concentration of low-density lipoprotein cholesterol in plasma, without use of preparative ultracentrifuge.

mongrel female rats = assay: Hepatoprotective activity: subchronic liver lesion (hepatitis) with CCl4; assay type: in vivo; settings: rats, CCl4 hepatitis
Procedure: Hepatoprotective properties of the compounds were studied on a model of subchronic liver lesion (hepatitis) with carbon quadrichloride.
70 mongrel female rats with initial body mass 190-200 g fed a standard vivarium ration, were used in experiment. Animals were divided into 7 groups (10 rats each): • Group 1 - control one; during the first four days of experiment animals were subcutaneously injected 0.2 ml vaseline oil; • Group 2 - during the first four days animals were subcutaneously injected 50% CCl4 solution in vaseline oil at a rate of 0.1 ml per 100 g body mass; • Group 3 - Legalon in a starch gel was administered orally for 8 days at a dose 30 mg/kg against the background of CCl4 administration; […] , resepectively, was administered in a way similar to group III; […] , resepectively, was administered in a way similar to group III.
The test compounds and Legalon were administered to animals 1 hour prior to CCl4 administration. 24 hours after the last administration of the drugs, animals were decapitated.
Activity of blood serum transaminases ALT and AST was assessed using the conventional Frenkel-Rightman method [Laboratory examination methods in the clinic. Ed. by Menshikov V.V. Moscow, Meditsina publishers (1969), 302 pp.].
The published method [Rodionova L.P. Modification of blood serum trigyceride level determination method. Laboratomoye delo (Laboratory Matter) (1980), No 5, pp. 297-299] was used to determine blood serum TG level.
Blood serum LP final product MDA was determined using the published method [Korobeinikova E.N. Modification of lipid peroxydation product determination in reaction with thiobarbituric acid. Laboratomoye delo (Laboratory Matter) (1989), No 7, pp. 8-10]. Concentration of TBA-active products was calculated using regression equation: C = 0.21 + 0.26D, [formula] where C - concentration of TBA-active products (in nM MDA per 1 ml of serum), D - index D535 -D580 (in optic density units).
Total hepatic lipids were extracted using the modified Folch method [Cates M. Technology of Lipidology. Moscow, Mir publishers (1975), pp. 74-76]. Quantative content of lipid fractions was assessed with thin layer chromatography method (TLC) using the system of solvents hexane:diethyl ether:acetic acid at ratio 80:20:2. Zones of individual lipid fractions were determined using 10% alcohol solution of phosphoromolyobdenic acid which following elution were spectrophotometrically analysed at 600 nm.
Hepatic MDA level was determined using the published method [Stalnaya I.D., Garishvili T.G. Malonic dialdehyde determination method using thiobarbituric acid. In: Modem methods in biochemistry. Moscow, Meditsina publishers (1977), pp. 66-69]. MDA quantity was calculated using molar extinction coefficient value of stained trimethynic complex formed by MDA with two TBA molecules: E = 1.56 × 10^5 (cm)^-1 × M^-1 [formula]

[3] = system: Lewis pulmonary carcinoma (LLC); assay: Lewis pulmonary carcinoma growth; assay type: in vivo; settings: mice with LLC, day 12; for Growth inhibition percent: compound in drinking water; for Tumor volume (mm^3): compound in drinking water from 24 hours after transplantation
Procedure: Experiments were carried out on male mice with initial body mass 18-20 g. Each group included 10 animals. […] Administration of compounds II, III, IX, X, XII, XIV, XV, XVI, XVII, XIX, XXII, XLVII in drinking water was commenced 24 hours following transplantation and continued till the end of experiment. Effect of the compounds on Lewis rat pulmonary carcinoma (LLC) was estimated by day 12 of experiment by change in tumor volume expressed in mm^3.

hydroxyl radical = assay: Hydroxyl radical formation in the Fenton reagent (chemiluminescence); assay type: biochemical
Procedure: Active oxygen forms (AOF) of different nature were generated in the following systems: • A. Hydroxyl radical - in the mixture of FeSO4 with H2O2 (the Fenton reagent) [Halliwell B. Superoxide-dependent formation of hydroxyl radicals in the presence of iron salts. […] Incubation medium comprised 5 mM KH2PO4 (pH 7.4); 5 mM FeSO4; 2 mM luminol. H2O2 at final concentration 5 mM was introduced into a cuvette through a dispencer following background luminescence recording of the reagents' mixture. 5 to 10 ml of the test compounds dissolved in water were at needed concentration introduced into a cuvette.
CL flash recording duration after mixing ingredients, depended on a particular process kinetics. For each system, CL light sum (mV) was determined in the control samples without preparations (I-) and in samples comprising respective concentrations of preparations (I+). To estimate CL inhibition (activation) degree, the I+/I- ratio (in relative units) was found in the studied systems.
When H2O2 was introduced into phosphate buffer comprising iron sulfate, CL flash occured which was caused by formation of predominantly hydroxyl radical in the reaction mixture.

[4] = blood serum, oral 8 days 30 mg/kg
[5] = blood serum, oral 8 days, daily dose 30.0 mg/kg

For `CCOC(=O)c1c(CSc2ccccc2)n(C)c2cc(Br)c(O)c(CN(C)C)c12` [Arbidol], the “MLT, days” value ([1]; series with Control - 2 (9.1)) was 13.88*^2 days, the “Survival rate in percent” value ([1]; series with Control - 2 (34.5)) was 94.7*^2% and the “Protection degree in percent” value ([1]; series with Control - 2) was 60.2%. For the same compound, the “MLT, days” value ([1]; series with control - 1 (5.76)) was 9.22* days, the “Survival rate in percent” value ([1]; series with control - 1 (16.7)) was 43.4* percent and the “Protection degree in percent” value ([1]; series with control - 1) was 26.7%.

In the case of `Cl.O=C(O)CCCCC(=O)NCCc1c[nH]cn1` [IV, N-ADIPINYLHISTAMINE CHLOROHYDRATE], the “Hexenal sleep duration (minutes)” value [2] is reported as 20.39 ± 1.59* minutes.

In the case of `CC(=O)NC(CC(=O)NCCc1c[nH]cn1)C(=O)O` (stereo not drawn) [L, N-Acethyl-β -Aspartylhistamine], the HDL-CS (mongrel male rats) is reported as 31,0±2,1, the “LDL-CS+ VLDL-CS” value (mongrel male rats) is reported as 63,1±2,4*^A and the “Total CS” value (mongrel male rats) is reported as 94,1±2,1. The Triglycerides (mongrel male rats) was 141,6±12,6**^A and the Kcs (mongrel male rats) was 2,03±0,09***^A.

With `CC(=O)NC(CC(=O)O)C(=O)NCCc1c[nH]cn1` (stereo not drawn) [LI, N-Acethyl- α-Aspartylhistamine] the HDL-CS (mongrel male rats) was 39,8±1,6**^A, the “LDL-CS+ VLDL-CS” value (mongrel male rats) was 59,3±3,5*^A and the “Total CS” value (mongrel male rats) was 99,1±4,5. The Triglycerides (mongrel male rats) was 132,1±17,4**^A and the Kcs (mongrel male rats) was 1,49±0,07***^A.

With `O=C1CC[C@@H](C(=O)NCCc2c[nH]cn2)N1` [LII, Pyroglutamylhistamine] the “Hexenal sleep duration” value [2] was 21.14 ± 1.39 min.

`COc1cc(C2Oc3cc([C@H]4Oc5cc(O)cc(O)c5C(=O)[C@@H]4O)ccc3OC2CO)ccc1O` (some centres unmarked) [Legalon, reference compound] was tested, and the “Cholesterol level, mg/100 ml VLDL-CS” value (mongrel female rats; blood serum, TG/5, oral 8 days 30 mg/kg) was 15.7 ± 1.1 p<0.05 mg/100 ml, the “Cholesterol level, mg/100 ml LDL-CS” value (mongrel female rats; blood serum, calculated by formula, oral 8 days 30 mg/kg) was 20.1 ± 1.1 p<0.01 mg/100 ml and the “Cholesterol level, mg/100 ml HDL-CS” value (mongrel female rats; [4]) was 54.8 ± 2.5 mg/100 ml. For the same compound, the “Cholesterol level, mg/100 ml total-CS” value (mongrel female rats; [4]) was 90.9 ± 3.4 mg/100 ml, the “TG level, mg/100ml” value (mongrel female rats; [4]) was 78.0 ± 6.2 p<0.05 mg/100ml and the “ALT, nM/dl” value (mongrel female rats; [5]) was 622 ± 36 nM/dl. For the same compound, the “AST, nM/dl” value (mongrel female rats; [5]) was 531 ± 22 nM/dl, the “Lipid composition (in percent of total lipids) FCS” value (mongrel female rats; liver, oral 8 days 30 mg/kg) was 15.0 ± 0.4 p<0.01% of total lipids and the “Lipid composition (in percent of total lipids) Phospholipids” value (mongrel female rats; liver, oral 8 days 30 mg/kg) was 19.7 ± 1.1% of total lipids. For the same compound, the “Lipid composition (in percent of total lipids) Triglycerides” value (mongrel female rats; liver, oral 8 days 30 mg/kg) was 44.1 ± 1.9% of total lipids, the “Hepatic MDA, nM/l” value (mongrel female rats; 30.0 mg/kg) was 4.17 ± 0.31 p<0.001 nM/l and the “Serum MDA, nM/l” value (mongrel female rats; 30.0 mg/kg) was 5.58 ± 0.15 nM/l.

In the case of `O=C(O)CCCC(=O)NCCc1c[nH]c2ccc(OCc3ccccc3)cc12` [XIV, N-GLUTARYL-O-BENZYLSEROTONIN], the Growth inhibition percent [3] is reported as 68% and the “Tumor volume (mm^3)” value [3] is reported as 779 ± 94** mm^3.

With `O=C(O)CCCC(=O)NCCN1CCOCC1` [XIX, N-GLUTARYL-4-(2-AMINOETHYL)MORPHOLINE] the Growth inhibition percent [3] was 28%, the “Tumor volume (mm^3)” value [3] was 994 ± 173 mm^3 and the “Chemiluminiscence intensity (mV) + σn-1” value (hydroxyl radical; 1 µM, control of the series as in the table) was 49089 ± 269 mV. The “relative effect: I+/I-” value (hydroxyl radical; 0.01 mM) was 0.77, the “Chemiluminiscence intensity (mV) + σn-1” value (hydroxyl radical; 0.01 mM, control of the series as in the table) was 3846 ± 184 mV and the “relative effect: I+/I-” value (hydroxyl radical; 0.1 mM) was 0.68. For the same compound, the “Chemiluminiscence intensity (mV) + σn-1” value (hydroxyl radical; 0.1 mM, control of the series as in the table) was 3377 ± 222 mV, the “relative effect: I+/I-” value (hydroxyl radical; 1 mM) was 0.13 and the “Chemiluminiscence intensity (mV) + σn-1” value (hydroxyl radical; 1 mM, control of the series 7839 ± 171, 1120 ± 163, 4974 ± 283 or 1332 ± 172) was 626 ± 56 mV.
